Read-outs that look alike come from different tables or passages of the source.
Columns and labels:
Phytophthora infestans = format: in vivo; details: 3 days after inoculation
Venturia inaequalis = experiment: Venturia test (apples)/preventive
Sphaerotheca fuliginea = experiment: Sphaerotheca test (cucumbers)/preventive; format: in vivo; details: 7 days after inoculation
[1] = test system: green peach aphid (Myzus persicae); experiment: Myzus persicae spray test; format: in vivo; details: 500 g ai/ha; mortality, Chinese cabbage leaf-disks
Method: (§1) Solvent: 78.0 parts by weight acetone • 1.5 parts by weight dimethylformamide
(§2) Emulsifier: 0.5 parts by weight alkylarylpolyglycolether
(§3) To produce a suitable preparation of active compound, 1 part by weight of active compound is mixed with the stated amount of solvent and emulsifier, and the concentrate is diluted with emulsifier-containing water to the desired concentration.
Chinese cabbage (Brassica pekinensis) leaf-disks infected with all instars of the green peach aphid (Myzus persicae) are sprayed with a preparation of the active ingredient of the desired concentration.
After the specified period of time, mortality in % is determined. 100% means that all aphids have been killed; 0% means that none of the aphids have been killed. The mortality values determined thus are recalculated using the Colby-formula (see above).

Botrytis cinerea = experiment: Botrytis test (beans)/preventive; details: 10 ppm a.i.; size of lesions 2 days after inoculation
Method: After the spray coating has dried on, 2 small pieces of agar covered with growth of Botrytis cinerea are placed on each leaf.
2 days after the inoculation, the size of the lesions on the leaves is evaluated.

[2] = test system: two spotted spidermite (Tetranychus urticae); experiment: Tetranychus urticae spray test, OP-resistant; format: in vivo; details: 500 g ai/ha; mortality, French beans
Method: as §1, §2, §3
French beans (Phaseolus vulgaris) which are heavily infested with all stages of the two spotted spidermite (Tetranychus urticae), are sprayed with a preparation of the active ingredient of the desired concentration.
After the specified period of time, mortality in % is determined. 100% means that all spider mites have been killed and 0% means that none of the spider mites have been killed. The mortality values determined thus are recalculated using the Colby-formula (see sheet 1).

Q: Which “Efficacy in % found” value (Phytophthora infestans; 0.5 ppm a.i.) does the source give for `CO/C=C(/C(=O)OC)c1ccccc1Oc1cc(Oc2ccccc2C#N)ncn1` [Azoxystrobin (F107), azoxystrobin] here?
A: 30%

Q: `O=C(NCCc1ncc(C(F)(F)F)cc1Cl)c1ccccc1C(F)(F)F` [F70 fluopyram, fluopyram] was tested. Which “Efficacy in % found” value (Venturia inaequalis; 4 ppm a.i., first series) did it give?
A: 4%

Q: For `Cn1cc(C(=O)Nc2ccccc2-c2cc(F)c(F)c(F)c2)c(C(F)F)n1` [F72 fluxapyroxad, fluxapyroxad], which “Efficacy in % found” value (Sphaerotheca fuliginea; 1 ppm a.i.) is on record?
A: 29%

Q: What about the “Efficacy in % found” value (Venturia inaequalis; 0.5 ppm a.i., first series) of the same molecule?
A: 43%

Q: With `Cc1nn(C)c(F)c1C(=O)Nc1ccccc1C(C)CC(C)C` (stereo not drawn) [F84 penflufen, penflufen] as the molecule, how does the “Efficacy in % found” value (Venturia inaequalis; 2 ppm a.i., first series) read?
A: 0%

Q: With `CSC1=N[C@@](C)(c2ccccc2)C(=O)N1Nc1ccccc1` [Fenamidone (F114), fenamidone] as the molecule, how does the “Efficacy in % found” value (Sphaerotheca fuliginea; 50 ppm a.i.) read?
A: 20%

Q: With `N#Cc1c[nH]cc1-c1cccc2c1OC(F)(F)O2` [Fludioxonil (F248), fludioxonil] as the molecule, how does the “Efficacy in % found” value (Sphaerotheca fuliginea; 50 ppm a.i.) read?
A: 62%

Q: How did the “Efficacy in % found” value (Venturia inaequalis; 100 ppm a.i., second series) turn out when `CC(C)Oc1cccc(NC(=O)c2ccccc2C(F)(F)F)c1` [Flutolanil (F71), flutolanil] was run?
A: 4%

Q: For `COCC(=O)N(c1c(C)cccc1C)C(C)C(=O)OC` (stereo not drawn) [Metalaxyl (F241), metalaxyl], which “Efficacy in % found” value (Phytophthora infestans; 5 ppm a.i.) is on record?
A: 5%

Q: With `COC(=O)N(OC)c1ccccc1COc1ccn(-c2ccc(Cl)cc2)n1` [Pyraclostrobin (F121), pyraclostrobin] as the molecule, how does the “Efficacy in % after 6 d” value [1] read?
A: 70%

Q: Which “Efficacy in % found” value (Sphaerotheca fuliginea; 50 ppm a.i.) does the source give for `CCCN(CC)CC1COC2(CCC(C(C)(C)C)CC2)O1` (stereo not drawn) [Spiroxamine (F46), spiroxamine] here?
A: 19%

Q: How did the “Efficacy in % found” value (Botrytis cinerea) turn out when fenhexamid [Fenhexamid (F16)] was run?
A: 880%

Q: For fosetyl-aluminium [Fosetyl-Al (F281)], which “Efficacy in % after 6 d” value [2] is on record?
A: 70%

Q: For mancozeb [Mancozeb (F174)], which “Efficacy in % found” value (Phytophthora infestans; 20 ppm a.i.) is on record?
A: 45%

Q: Which “Efficacy in % found” value (Phytophthora infestans; 5 ppm a.i.) does the source give for “metalaxyl-M (mefenoxam) [Mefenoxam (F242)]” here?
A: 3%

From patent US20150223452A1, “COMPOSITION COMPRISING A PESTICIDAL TERPENE MIXTURE AND A FUNGICIDE” (priority 2012, published 2015)
